Assays:
Format in all cases: binding
GABBR1 = molecular target: T1, GABBR1 (Homo sapiens, UniProt Q9UBS5); test: NanoBRET screen HiBiT-GABBR1 in HEK293
T1 construct: purchased Promega (in-house HiBiT-GPCR construct library, NanoBRET)
Protocol: (§1) Each tracer candidate was screened across the entire library of HiBiT-GPCR constructs using NanoBRET as the detection modality. As depicted in Figure 4A, the specificity of interactions was evaluated through decrease in BRET due to competitive displacement of a bound tracer by excess parental compound. Each tracer was analyzed for binding to each HiBiT-GPCR fusion in the absence and in the presence of competing parental compound. Briefly, HEK293 cells were transfected with HiBiT-GPCR constructs diluted into promoterless DNA to reduce expression and maximize translocation to the cell surface. Each tracer candidate was then screened at concentrations of 1 μM and 0.1 μM across cells expressing these fusions. Cells were treated for 1.5 h with tracer either alone or in the presence of 20 μM competing parental compound (i.e., control). BRET was measured upon addition of purified LgBiT and subsequent complementation with HiBiT genetically fused to a GPCR. The specificity of interactions was assessed through a decrease in BRET signal due to competitive displacement of the bound tracer. To further gauge the robustness of these interactions, the fold response over the control (i.e., BRETtracer/BRETcontrol) was calculated. We chose a 1.5-fold response, which translates to ≥7-fold signal over noise as the minimal threshold required to score an interaction as positive. […]. Below we highlight the screening results obtained for our exemplary fluorescent tracers based on Clozapine, Amitriptyline and AZD1283.
(§2) HiBiT-GPCR DNA constructs were diluted in 10 mM Tris pH 8 to a final concentration of 0.01 μg/μL, arrayed in 96-well plates and stored at −20 °C. For transfection, HEK293 cells were suspended in Opti-MEM (without phenol red) supplemented with 2% fetal bovine serum (Seradigm) and 100 units/mL penicillin–streptomycin (Gibco) at a final concentration of 220,000 cells/mL and dispensed into white 96-well plates at 90 μL/well. Subsequent transfections and screens were carried using an Agilent Bravo Automated Liquid Handling Platform. First, the 96-well HiBiT DNA arrays were diluted 25-fold in Opti-MEM (without serum or phenol red) to a final concentration of 0.0004 μg/μL and 20 μL of the diluted DNAs were transferred into new 96-well plates. Next, promoterless carrier DNA (1 μg/μL) was diluted 25-fold (0.04 μg/μL) and then dispensed into the diluted arrays at 20 μL/well. Following brief mixing, Viafect transfection reagent (Promega) diluted 16-fold into Opti-MEM was dispensed into the plates at 40 μL/well. After mixing by pipetting, plates were incubated for 10 min on the pipetting station deck. The DNA-transfection reagent complexes were then added to plates containing cells. To facilitate the screen, 10 μL of DNA-transfection reagent complexes were added in duplicates to the top 4 and bottom 4 rows, resulting in two identical 48-well arrays per plate. Plates with transfected cells were incubated for 18–20 h at 37 °C/5% CO2. A screen of each tracer across the entire library using two different concentrations requires duplicate plates of transfected cells. Depending on the number of tracers being screened, transfections can be scaled up using the same ratios. The next day, for each tracer, four 20× screening solutions in tracer dilution buffer (Promega) were prepared: two duplicates at final concentration of 20 μM and two duplicates at a final concentration of 2 μM. A competing unmodified compound was added to one of each duplicate at a final concentration of 400 μM. The four resulting solutions were diluted 4-fold in Opti-MEM without serum or phenol red to generate 5× solutions (5 µM and 0.5 µM tracer +/− 100 μM competing compound). To screen the library, a BioTek MultiFlo FX liquid dispenser was used to dispense 22.5 µL of tracer solution to the top 4 rows and 22.5 µL tracer + competing compound solution to the 4 bottom rows. Plates were briefly mixed on an orbital shaker and incubated for 1.5 h at room temperature. […]

GRPR = molecular target: T2, GRPR (Homo sapiens, UniProt P30550); test: NanoBRET screen HiBiT-GRPR in HEK293
T2 construct: purchased Promega (in-house HiBiT-GPCR construct library, NanoBRET)
T2 sequence (P30550 whole entry): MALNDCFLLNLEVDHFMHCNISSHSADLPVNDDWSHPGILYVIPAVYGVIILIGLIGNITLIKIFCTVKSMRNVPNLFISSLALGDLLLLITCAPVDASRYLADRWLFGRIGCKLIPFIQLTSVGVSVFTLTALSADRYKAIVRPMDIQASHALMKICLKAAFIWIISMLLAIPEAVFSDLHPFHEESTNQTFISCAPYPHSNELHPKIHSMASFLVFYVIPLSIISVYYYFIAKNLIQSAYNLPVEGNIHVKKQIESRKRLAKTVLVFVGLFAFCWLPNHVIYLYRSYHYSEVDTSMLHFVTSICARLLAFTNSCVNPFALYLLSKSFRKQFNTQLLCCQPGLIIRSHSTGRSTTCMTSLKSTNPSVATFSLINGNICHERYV
Protocol: as §1, §2

CNR1 = molecular target: T3, CNR1 (Homo sapiens, UniProt P21554); test: NanoBRET screen HiBiT-CNR1 in HEK293
T3 construct: purchased Promega (in-house HiBiT-GPCR construct library, NanoBRET)
T3 sequence (P21554 whole entry): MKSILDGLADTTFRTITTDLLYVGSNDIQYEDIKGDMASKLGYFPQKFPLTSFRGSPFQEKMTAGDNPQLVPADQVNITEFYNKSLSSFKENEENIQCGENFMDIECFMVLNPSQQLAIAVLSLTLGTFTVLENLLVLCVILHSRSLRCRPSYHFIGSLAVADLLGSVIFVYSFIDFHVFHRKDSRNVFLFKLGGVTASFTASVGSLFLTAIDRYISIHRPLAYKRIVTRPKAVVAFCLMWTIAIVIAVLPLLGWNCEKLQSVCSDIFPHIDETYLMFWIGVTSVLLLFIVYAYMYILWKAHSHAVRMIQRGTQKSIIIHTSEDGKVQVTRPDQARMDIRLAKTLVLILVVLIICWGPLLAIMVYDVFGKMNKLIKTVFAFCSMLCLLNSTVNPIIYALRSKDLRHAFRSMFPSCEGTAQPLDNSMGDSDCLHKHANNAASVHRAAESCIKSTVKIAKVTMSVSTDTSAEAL
Protocol: as §1, §2

GRM3 = molecular target: T4, GRM3 (Homo sapiens, UniProt Q14832); test: NanoBRET screen HiBiT-GRM3 in HEK293
T4 construct: purchased Promega (in-house HiBiT-GPCR construct library, NanoBRET)
T4 sequence (Q14832 23-879): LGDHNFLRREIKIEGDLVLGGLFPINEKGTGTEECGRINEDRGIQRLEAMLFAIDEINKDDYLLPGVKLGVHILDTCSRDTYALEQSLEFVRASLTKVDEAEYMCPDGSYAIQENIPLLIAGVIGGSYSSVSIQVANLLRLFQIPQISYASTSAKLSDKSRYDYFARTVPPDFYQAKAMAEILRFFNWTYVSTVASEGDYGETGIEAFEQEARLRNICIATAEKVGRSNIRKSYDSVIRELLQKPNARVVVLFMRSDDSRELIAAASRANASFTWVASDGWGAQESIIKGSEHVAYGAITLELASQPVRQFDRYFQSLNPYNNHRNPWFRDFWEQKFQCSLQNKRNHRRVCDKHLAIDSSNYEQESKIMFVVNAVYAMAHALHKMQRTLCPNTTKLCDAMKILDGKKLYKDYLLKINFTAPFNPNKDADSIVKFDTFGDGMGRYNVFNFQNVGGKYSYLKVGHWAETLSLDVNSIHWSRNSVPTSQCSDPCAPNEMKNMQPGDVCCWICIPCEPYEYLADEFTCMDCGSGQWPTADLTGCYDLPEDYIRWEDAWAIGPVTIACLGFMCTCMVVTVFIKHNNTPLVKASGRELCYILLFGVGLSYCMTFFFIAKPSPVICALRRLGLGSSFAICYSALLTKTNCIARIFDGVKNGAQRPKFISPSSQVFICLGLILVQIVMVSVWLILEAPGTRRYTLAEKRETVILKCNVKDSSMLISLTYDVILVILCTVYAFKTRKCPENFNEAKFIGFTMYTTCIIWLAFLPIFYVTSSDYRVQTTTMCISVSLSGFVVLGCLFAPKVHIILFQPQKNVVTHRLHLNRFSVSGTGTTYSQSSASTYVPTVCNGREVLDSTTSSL
Protocol: as §1, §2

[1] = tracer at 0.1μM, listed as amitriptyline-b-2-NB590
[2] = tracer at 1μM, listed as amitriptyline-b-2-NB590

T1 sequence (Q9UBS5 15-961 limits assumed): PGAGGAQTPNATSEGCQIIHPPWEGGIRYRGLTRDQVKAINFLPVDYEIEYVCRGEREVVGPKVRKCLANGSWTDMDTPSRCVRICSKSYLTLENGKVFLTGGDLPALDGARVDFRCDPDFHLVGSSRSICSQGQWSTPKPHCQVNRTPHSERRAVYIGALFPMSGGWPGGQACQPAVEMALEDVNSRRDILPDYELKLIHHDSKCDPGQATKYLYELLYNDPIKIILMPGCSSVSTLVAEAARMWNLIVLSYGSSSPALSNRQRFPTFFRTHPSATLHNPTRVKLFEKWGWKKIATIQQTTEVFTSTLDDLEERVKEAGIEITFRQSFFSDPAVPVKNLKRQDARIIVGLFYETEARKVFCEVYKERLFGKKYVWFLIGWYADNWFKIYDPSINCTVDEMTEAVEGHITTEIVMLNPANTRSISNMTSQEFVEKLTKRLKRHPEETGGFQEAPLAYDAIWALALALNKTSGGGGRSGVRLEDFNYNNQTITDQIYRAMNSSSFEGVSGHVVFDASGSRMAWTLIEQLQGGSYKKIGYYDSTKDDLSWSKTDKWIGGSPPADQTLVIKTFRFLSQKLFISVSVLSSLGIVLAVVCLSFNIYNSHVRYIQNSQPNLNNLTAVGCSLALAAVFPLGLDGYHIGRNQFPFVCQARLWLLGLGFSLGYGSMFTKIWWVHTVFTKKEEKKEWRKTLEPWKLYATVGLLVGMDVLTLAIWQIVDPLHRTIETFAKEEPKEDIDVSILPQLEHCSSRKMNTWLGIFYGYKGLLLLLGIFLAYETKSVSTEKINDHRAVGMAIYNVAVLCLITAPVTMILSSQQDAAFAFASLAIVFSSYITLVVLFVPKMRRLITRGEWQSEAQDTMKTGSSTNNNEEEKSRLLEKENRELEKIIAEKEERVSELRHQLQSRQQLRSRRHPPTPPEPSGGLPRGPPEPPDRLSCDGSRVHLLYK

CCOC(=O)c1cc(C#N)c(N2CCC(C(=O)NS(=O)(=O)Cc3ccccc3/C=C/C(=O)NCCNC(=O)CCc3ccc4n3[B-](F)(F)[N+]3=C(c5ccc[nH]5)C=CC3=C4)CC2)nc1C [AZD1283-1-NB590]
NanoBRET Fold Response (GABBR1; GABBR1, 0.1μM): 1.05
NanoBRET Fold Response (GABBR1; GABBR1, 1μM): 1.13
NanoBRET Fold Response (GRPR; GRPR, 0.1μM): 1.01
NanoBRET Fold Response (GRPR; GRPR, 1μM): 1.01
NanoBRET Fold Response (CNR1; CNR1, 0.1μM): 0.97
NanoBRET Fold Response (CNR1; CNR1, 1μM): 0.51
NanoBRET Fold Response (GRM3; GRM3, 0.1μM): 0.97
NanoBRET Fold Response (GRM3; GRM3, 1μM): 0.99

N#CN=C(NCCCOc1cccc(CN2CCCCC2)c1)NCCNC(=O)CCOCCOCCOCCOCCNC(=O)CCc1ccc2n1[B-](F)(F)[N+]1=C(c3ccc[nH]3)C=CC1=C2 [Aminopotentidine-2-NB590]
NanoBRET Fold Response (GABBR1; GABBR1, tracer 0.1μM): 1.06
NanoBRET Fold Response (GABBR1; GABBR1, tracer 1μM): 1.00
NanoBRET Fold Response (GRPR; GRPR, tracer 0.1μM): 1.08
NanoBRET Fold Response (GRPR; GRPR, tracer 1μM): 0.98
NanoBRET Fold Response (CNR1; CNR1, tracer 0.1μM): 0.98
NanoBRET Fold Response (CNR1; CNR1, tracer 1μM): 1.00
NanoBRET Fold Response (GRM3; GRM3, tracer 0.1μM): 1.01
NanoBRET Fold Response (GRM3; GRM3, tracer 1μM): 1.03

CN(C)CCC=C1c2ccccc2CCc2ccc(C(=O)NCCNC(=O)CCOCCOCCOCCOCCNC(=O)CCc3ccc4n3[B-](F)(F)[N+]3=C(c5ccc[nH]5)C=CC3=C4)cc21 [Amitriptyline-a-2-NB590]
NanoBRET Fold Response (GABBR1; tracer at 0.1μM): 0.93
NanoBRET Fold Response (GABBR1; tracer at 1μM): 0.91
NanoBRET Fold Response (GRPR; tracer at 0.1μM): 1.12
NanoBRET Fold Response (GRPR; tracer at 1μM): 0.98

CN(C)CCC=C1c2ccccc2CCc2ccc(C(=O)NCCNC(=O)CCOCCOCCOCCOCCNC(=O)CCc3ccc4n3[B-](F)(F)[N+]3=C(c5ccc[nH]5)C=CC3=C4)cc21 [Amitriptyline-b-2-NB590]
NanoBRET Fold Response (GABBR1; [1]): 1.11
NanoBRET Fold Response (GABBR1; [2]): 0.85
NanoBRET Fold Response (GRPR; [1]): 1.05
NanoBRET Fold Response (GRPR; [2]): 1.03
NanoBRET Fold Response (CNR1; CNR1, tracer 0.1μM): 1.03
NanoBRET Fold Response (CNR1; CNR1, tracer 1μM): 1.04
NanoBRET Fold Response (GRM3; GRM3, tracer 0.1μM): 1.00
NanoBRET Fold Response (GRM3; GRM3, tracer 1μM): 1.03

CN(CCC=C1c2ccccc2CCc2ccccc21)C(=O)CCOCCOCCOCCOCCNC(=O)CCc1ccc2n1[B-](F)(F)[N+]1=C(c3ccc[nH]3)C=CC1=C2 [Amitriptyline-e-2-NB590]
NanoBRET Fold Response (GABBR1; tracer at 1μM): 1.09

COc1ccc2c(n1)c(CCNC(C)=O)cn2CCNC(=O)CCc1ccc2n1[B-](F)(F)[N+]1=C(c3ccc[nH]3)C=CC1=C2 [Azamelatonin-1-NB590]
NanoBRET Fold Response (GABBR1; 0.1μM tracer): 1.44
NanoBRET Fold Response (GABBR1; 1μM tracer): 1.44
NanoBRET Fold Response (GRPR; 0.1μM tracer): 1.00
NanoBRET Fold Response (GRPR; 1μM tracer): 1.08
NanoBRET Fold Response (CNR1; 0.1μM tracer): 1.01
NanoBRET Fold Response (CNR1; 1μM tracer): 0.95
NanoBRET Fold Response (GRM3; 0.1μM tracer): 0.95
NanoBRET Fold Response (GRM3; 1μM tracer): 1.02

COc1ccc2[nH]c(-c3ccc(CNC(=O)CCOCCOCCOCCOCCNC(=O)CCc4ccc5n4[B-](F)(F)[N+]4=C(c6ccc[nH]6)C=CC4=C5)cc3)c(CCNC(C)=O)c2n1 [AzomelatoninICO9-2-NB590]
NanoBRET Fold Response (GABBR1; 0.1μM tracer): 0.66
NanoBRET Fold Response (GABBR1; 1μM tracer): 0.57
NanoBRET Fold Response (GRPR; 0.1μM tracer): 0.84
NanoBRET Fold Response (GRPR; 1μM tracer): 1.22
NanoBRET Fold Response (CNR1; 0.1μM tracer): 0.99
NanoBRET Fold Response (CNR1; 1μM tracer): 1.02
NanoBRET Fold Response (GRM3; 0.1μM tracer): 1.03
NanoBRET Fold Response (GRM3; 1μM tracer): 0.85
